Data as given in patent US7511036B2, “Dihydrothiazine prodrugs of thiazolium agents” (Synvista Therapeutics, Inc., priority 2003, dated 2009).
Structures can show the parent of a compound that is named as a salt.

How the values were obtained:
[1] = tested on: dog model for diabetes; assay: Dog model for diabetes, indicators of ventricular elasticity; assay type: in vivo; conditions: indicator of ventricular elasticity
Text: (§1) Cardiovascular risk correlates more closely with the systolic and the pulse pressure than with the diastolic pressure. In diabetic patients, the cardiovascular risk profile of diabetic patients is strongly correlated to duration of diabetes, glycemic control and blood pressure. Structural matrix proteins contribute to the function of vessels and the heart, and changes in the physical behavior of cardiovascular walls are believed to be important determinants of circulatory function. In elderly individuals, the loss of compliance in the aorta leads to systolic hypertension and isolated systolic hypertension, which in turn expands the arterial wall and thereby diminishes the dynamic range of elasticity. […] These studies indicate that prodrugs of such thiazolium compounds should have a similar effect.

[2] = tested on: collagen in cardiovascular tissues; assay: Mass of collagen in cardiovascular tissues after treatment; conditions: in vivo
Text: as §1

[3] = tested on: Type IV collagen; assay: In situ hybridization studies, Type IV collagen expression; assay type: in vivo
Text: as §1

[4] = tested on: TGFbeta; assay: In situ hybridization studies, TGFbeta expression; assay type: in vivo
Text: as §1

[5] = tested on: elderly patients with pulse pressures greater than 60 mm Hg; assay: Phase IIa clinical trial; assay type: in vivo, human; conditions: for left ventricular mass: Phase IIa clinical trial, echocardiography
Text: as §1
Pulse pressure is the difference between systolic and diastolic blood pressure. In a young human, systolic pressure is typically 120 mm Hg and diastolic pressure is 80 mm Hg, resulting in a pulse pressure of 40 mm Hg. With age, in many individuals pulse pressure increases, largely due to the increase in systolic pressure that results from stiff vessel disease. In individuals with pulse pressure greater than 60 mm Hg there is an increased risk of death from cardiovascular morbidities. […] This decrease in pulse pressure was believed to be due primarily to the effect of the agent on lowering the systolic blood pressure.
When the heart pumps blood into the vascular system, the ability of the arteries to expand helps to push blood through the body. When arteries become stiff, as they do in the natural process of aging, the ability of the arteries to expand is diminished which also has consequences for the heart. The heart has to work harder to pump the blood into the stiff arteries, and it eventually hypertrophies (enlarges in size) to accomplish this. A hypertrophied heart is an inefficient pump, and is one of the disorders that leads to congestive heart failure. […] Such a compound can be provided by administration of an N-formyl thiazine compound, (i.e., 2-hydroxy-5,6-dimethyl-2-phenyl-2,3-dihydro-(1,4)thiazine-4-carbaldehyde) and conversion of the compound under, for example, acidic conditions in the stomach, to the corresponding thiazolium salt. The potential clinical benefit of this is to lessen the effort that the heart must expend to push blood throughout the body. The effect is also believed to contribute to preventing hypertrophy and subsequent inefficiency of the heart, which inefficiency would contribute to congestive heart failure.
Atherosclerosis is a disease that involves deposition of blood lipids in plaque in the arteries throughout the body. In coronary arteries, accumulation of plaque progressively leads to reduced coronary flow, with occlusion of the arteries causing focal death of cardiac tissue (myocardial infarction, heart attack). If the amount of tissue that dies is large enough, death ensues. […] Reducing local deposits of plaque should eventually lessen the risk of myocardial infarction and death due to heart attacks.

[6] = tested on: Rhesus monkeys; conditions: drug treated vs. control eye, baseline and pilocarpine-stimulated; see the '112 application; cited from earlier work
[7] = tested on: Rhesus monkeys; conditions: pilocarpine-stimulated accommodation; see the '112 application; cited from earlier work
[8] = Conversion of dihydrothiazine to thiazolium chloride under acidic conditions; assay type: physicochemical
Method: The following experiment provides evidence that thiazine structures related to compound la can be converted under acidic conditions to thiazolium structures, and thus can serve as pro-drug forms of thiazolium agents.
Compound Ia (2.48 mmol, 0.620 g) was weighed into a 100 mL round bottom flask equipped with magnetic stir bar. Methanol (40 mL) was added, and the solution was stirred until all solid was dissolved. Aqueous hydrochloric acid was added (1N, 3.968 mmol, 4.0 mL) and the reaction solution stirred at ambient temperature for 48 hours. The methanol was removed in vacuo, and the residue was diluted with 25 mL of distilled water. The aqueous layer was extracted with methyl t-butyl ether (2×20 mL). The aqueous layer was concentrated to dryness in vacuo and the residue was crystallized with acetonitrile, methyl-t-butyl-ether (1:1). The crystals were collected via filtration to give 598 mg (90% yield) of 4,5-dimethyl-3-(2-oxo-2-phenylethyl)-thiazolium chloride. […]
In a 15 mL round bottom flask, stirred with a magnetic stirrer, was charged 36 mg (0.16 mmol) of compound Ib (prepared as described by Thornalley et al., Biochemical Pharmacology, vol. 57,pp 303-308, 1999), 2 mL of 1% hydrochloric acid and 2 mL of Ethyl Acetate. Since there was no reaction as monitored by HPLC, 2 mL of 5N Hydrochloric acid, and 2 mL of methanol was added, and the flask was heated to 35° C. […]

SMILES | end diastolic pressure [1] | end diastolic volume [1] | mass of collagen in cardiovascular tissues [2] | expression of Type IV collagen [3] | expression of TGFbeta [4] | left ventricular mass [5] | left ventricular mass ([5]; listed as 3-[2-phenyl-2-oxoethyl]-4,5-dimethyl-thiazolium chloride salt) | stiffness of arteries (ratio of stroke volume (ml) to pulse pressure (mm Hg)) ([5]; Phase IIa clinical trials) | amount of circulating triglycerides (lipids) ([5]; Phase IIa trial) | pulse pressure ([5]; Phase IIa trial, elderly patients with pulse pressures greater than 60 mm Hg, statistically significant) | improvement in fluid outflow facility (ophthalmologic function) [6] | improvement in accommodation [7] | conversion to thiazolium under acidic conditions ([8]; 1% hydrochloric acid and ethyl acetate, monitored by HPLC) | time until the conversion to thiazolium chloride was finished ([8]; after adding 5N hydrochloric acid and methanol, 35° C., HPLC)
Cc1sc[n+](CC(=O)c2ccccc2)c1C [3-[2-phenyl-2-oxoethyl]-4,5-dimethyl-thiazolium salt] | returned to a value at about the mid-point between the disease impaired value and the value for control dogs | returned to a value at about the mid-point between the disease impaired value and the value for control dogs | reduction in the mass of collagen | reduces the expression | reduces the expression | reduction of left ventricular mass | reduce left ventricular mass | reverse the stiffness of arteries | increased the amount of circulating triglycerides | reduced pulse pressure | improvement has been illustrated | Improvement in accommodation has been illustrated | – | –
O=CN1C=CSC(O)(c2ccccc2)C1 (centres unmarked) [Ib, 2-Hydroxy-2-Phenyl-2,3-Dihydro-(1,4)thiazine-4-carbaldehyde] | – | – | – | – | – | – | – | – | – | – | – | – | no reaction | about 15 h
